Results as given in patent US10736865B2, “Pharmaceutical formulations comprising 9-cis-retinyl esters in a lipid vehicle” (RETINAGENIX THERAPEUTICS, INC., priority 2009, dated 2020).

How the values were obtained:
Rpe65^−/− mice [1] = conditions: mouse, in vivo
Protocol: (§3) Electroretinogram (ERG)—ERGs were recorded on anesthetized mice as described in, e.g., Maeda A, et al. Role of photoreceptor-specific retinol dehydrogenase in the retinoid cycle in vivo.
(§4) Briefly, mice first were dark-adapted overnight prior to recording. Then under a safety light, mice were anesthetized by intraperitoneal injection of 20 μl/g body weight of 6 mg/ml ketamine and 0.44 mg/ml xylazine diluted with 10 mM sodium phosphate, pH 7.2, containing 100 mM NaCl. Pupils were dilated with 1% tropicamide. A contact lens electrode was placed on the eye and a reference electrode and ground electrode were positioned on the ear and tail, respectively. ERGs were recorded with the universal testing and electrophysiologic system (UTAS) E-3000 (LKC Technologies, Inc.).
(§5) Single-flash recording—White light flash stimuli were employed with a range of intensities (from −3.7 to 2.8 log cd·s·m^·2), and flash durations were adjusted according to intensity (from 20 μs to 1 ms). Two to five recordings were made at sufficient intervals between flash stimuli (from 10 s to 10 min) to allow mice to recover. Typically, four to eight animals were used for recording each point. The one-way ANOVA test was used for statistical analysis of responses. […]

[2] = Retinoid levels in eyes and liver after 14 days of daily dosing; assay type: in vivo, Rpe65^−/− and C57Bl/6 mice
Protocol: (§1) Analyses of Retinoic Acid and Non-polar Retinoids—All experimental procedures related to extraction, retinoid derivatization and separation of retinoids were done under dim red light provided by a Kodak No. 1 safelight filter (transmittance>560 nm). Retinoic acid extraction from liver was performed as formerly described in, e.g., Batten M L. et al. supra. Analyses of polar retinoids in plasma, eye and liver were performed with an Agilent 1100 HPLC and two tandem normal phase columns: a Varian Microsorb Silica 3 μm, 4.6×100 mm (Varian, Palo Alto, Calif.) and an Ultrasphere-Si, 5 μm, 4.6×250 mm column (Aleman T S, et al. supra). An isocratic normal phase system of hexane: 2-propanol:glacial acetic acid (1000:4.3:[…]; v/v/v) was used for elution at a flow rate of 1 ml/min at 20° C. with detection at 355 nm. Calibration was done with standards of all-trans-retinoic acid and 9-cis-retinoic acid purchased from Sigma-Aldrich. Analyses of non-polar retinoids in plasma, eye and liver were carried out by normal phase HPLC (Ultrasphere-Si, 5 μm, 4.6×250 mm, Beckman, Fullerton, Calif.) with 10% ethyl acetate and 90% hexane at a flow rate of 1.4 ml/min with detection at 325 nm by an HP1100 HPLC with a diode array detector and HP Chemstation A.03.03 software.

Rpe65^−/− mice [3] = conditions: mouse, in vivo; remark: listed apart in the source
Protocol: as §4
(§6) Single-flash recording—White light flash stimuli were employed with a range of intensities (from −3.7 to 2.8 log cd·s·m^·2), and flash durations were adjusted according to intensity (from 20 μs to 1 ms). Two to five recordings were made at sufficient intervals between flash stimuli (from 10 s to 10 min) to allow mice to recover. Typically, four to eight animals were used for recording each point. The one-way ANOVA test was used for statistical analysis of responses.
Rpe65^−/− mice were split into two groups (an intermittent group and a daily group), each treated for a total of 8 weeks with 1 or 4 mg/kg of 9-cis-R-Ac. […] ERGs were recorded at day 28 and again at day 56, after which tissues were collected for retinoid analyses of the eye and liver and histology of the eye.

[4] = Retinoid levels in eyes after single doses of 9-cis-R-Ac; assay type: in vivo, Rpe65^−/− mice
Protocol: as §1

Rpe65^−/− mice [5] = conditions: mouse, in vivo; remark: listed apart in the source
Protocol: as §3, §4, §5
(§7) Following dark-adaption for 3 days post-gavage, scotopic single flash ERGs were recorded and eyes were collected to assess 9-cis-retinal levels.

[6] = 9-cis-retinal levels in the eye after 3 daily doses; assay type: in vivo, Rpe65^−/− mice
Protocol: as §1

[7] = Plasma retention of 9-cis-retinyl acetate metabolites after single gastric gavage; assay type: in vivo, C57/Bl6 mice; conditions: for Absorption (plasma levels of fatty acid 9-cis-retinyl esters and 9-cis-retinol): compared to canola and rapeseed oils, 50 mg/kg gavage
Protocol: as §1
Several different oil-based preparations were prepared to test the absorption levels of 9-cis-R-Ac in plasma. More specifically, a single 50 mg/kg dose of 9-cis-retinyl acetate (50 mg/kg) suspended in 4 different vehicle oils was administrated by gastric gavage to 5-week-old C57/Bl6 mice and retinoid levels were determined in the plasma thereafter (n=5 for each time point per group).

[8] = Clinical side effects after single doses of 9-cis-R-Ac; assay type: in vivo, Rpe65^−/− mice; conditions: single doses up to 50 mg/kg in soybean oil
Protocol: Single doses (2-50 mg/kg) of 9-cis-R-Ac in soybean oil were administered to 5-week-old Rpr65Rpe65^−/− mice to test whether the pre-prodrug 9-cis-R-Ac was capable of delivering artificial chromophore to the eye.
as §7

Rpe65^−/− mice [9] = assay: Retinal histology after intermittent and daily administration for 8 weeks; assay type: in vivo; conditions: for Retinal cross-section morphology: 8 weeks
From the text: Histology and Immunohistochemistry—Histological procedures employed for the eye analyses as described in Maeda A, et al. supra.
(§2) The dosing regimens are illustrated in FIG. 7.

Rpe65^−/− mice [10] = conditions: mouse, in vivo; remark: listed apart in the source
Protocol: as §3, §4, §6
To test this directly, 5-week-old Rpe65^−/− mice were gavaged daily with 9-cis-R-Ac in soybean oil at doses of 1, 4, or 12.5 mg/kg for 14 days. […]

[11] = Retinoid analyses of eye and liver after 8-week regimens; assay type: in vivo, Rpe65^−/− mice; conditions: 8-week intermittent and daily regimens
Protocol: as §1, §2

SMILES: CC(=O)OC/C=C(C)/C=C/C=C(C)\C=C\C1=C(C)CCCC1(C)C [9-cis-R-Ac, 9-cis-retinyl acetate]
- Duration of positive ERG effect after treatment (Rpe65^−/− mice [1]): 4 to 6 days
- 9-cis-retinal in eyes ([2]; 1 mg/kg daily for 14 days): No 9-cis-retinal was detected
- 9-cis-retinal in eyes ([2]; 4 mg/kg daily for 14 days): 38 ± 4 pmol
- 9-cis-retinal in eyes ([2]; 12.5 mg/kg daily for 14 days): 95 ± 14 pmol
- Fatty acid 9-cis-retinyl esters in eyes ([2]; 4 and 12.5 mg/kg/day groups, 14 days): 1 pmol/eye
- Fatty acid 9-cis-retinyl esters in livers ([2]; daily dosing 14 days, C57Bl/6 and Rpe65^−/− mice): accumulate in a dose-dependent manner
- all-trans-retinol and 9-cis-retinol in eyes ([2]; daily dosing 14 days, any group): Neither all-trans-retinol nor 9-cis-retinol was found
- Dose sufficient for significant improvement in ERG responses over control (Rpe65^−/− mice [3]): 1 mg/kg
- 9-cis-retinol in eyes ([4]; single dose 50 mg/kg): 43 pmol/eye
- 11-cis-retinoids in eyes ([4]; single doses): No 11-cis-retinoids were detected
- 9-cis-retinal in the eye ([4]; single doses 2 and 4 mg/kg): trace levels
- Fatty acid 9-cis-retinyl esters in eyes ([4]; single doses, all analyzed eyes): No fatty acid 9-cis-retinyl esters were detected
- ERG effect of lower doses (Rpe65^−/− mice [5]): positive ERG effects
- Lowest tested dose that provided significant ERG improvement (Rpe65^−/− mice [5]): 6.25 mg/kg
- 9-cis-retinal in the retinas ([6]; day 4, all treated mice (1, 4, 12.5 mg/kg/day for 3 days)): detected
- 9-cis-retinal in the retinas ([6]; day 9, after 3 daily doses): No 9-cis-retinal was found
- Plasma levels of all-trans-retinol and fatty acid all-trans-retinyl esters ([7]; among the test vehicles and during the 23 h test period): did not differ significantly
- Absorption (plasma levels of fatty acid 9-cis-retinyl esters and 9-cis-retinol) ([7]; in soybean oil): best absorption
- Absorption (plasma levels of fatty acid 9-cis-retinyl esters and 9-cis-retinol) ([7]; in sunflower oil): best absorption
- Time of highest plasma levels of 9-cis-retinoids ([7]; single 50 mg/kg gastric gavage, C57/Bl6 mice): 3 h
- Clinical side effects [8]: no obvious clinical side effects
- Retinal cross-section morphology (Rpe65^−/− mice [9]; 1 mg/kg by either schedule, vs control mice): no significant change
- Retinal cross-section morphology (Rpe65^−/− mice [9]; 4 mg/kg daily or 4 mg/kg intermittent): improvement of rod outer segment (ROS) morphology
- Effect on retina (photoreceptor outer segment lengths, nuclei in outer nuclear layer) (Rpe65^−/− mice [9]; 8-week administration): dose-dependent protective effect
- Lowest daily test dose evoking significant improvement in retinal function (Rpe65^−/− mice [10]): 1 mg/kg
- 9-cis-retinal in the eyes [11]: detected in a dose-dependent manner
